According to US20130041142A1, “HUMAN SWEET TASTE RECEPTOR-ACTING SWEET TASTE REGULATING SUBSTANCE TO SWEET TASTE SUBSTANCE” (priority 2009, published 2013):
Each block holds one molecule with its values, some of them ahead of it. Peptide text beside a SMILES is read from it.

Target: T1, human sweet taste receptor (hT1R2+hT1R3) (Homo sapiens, UniProt Q7RTX0+Q8TE23)
T1 construct: includes all portions of respective subunits, that is, all regions of a transmembrane domain; pcDNA5/FRT construct co-transfected with pOG44
T1 sequence (Q8TE23 20-839): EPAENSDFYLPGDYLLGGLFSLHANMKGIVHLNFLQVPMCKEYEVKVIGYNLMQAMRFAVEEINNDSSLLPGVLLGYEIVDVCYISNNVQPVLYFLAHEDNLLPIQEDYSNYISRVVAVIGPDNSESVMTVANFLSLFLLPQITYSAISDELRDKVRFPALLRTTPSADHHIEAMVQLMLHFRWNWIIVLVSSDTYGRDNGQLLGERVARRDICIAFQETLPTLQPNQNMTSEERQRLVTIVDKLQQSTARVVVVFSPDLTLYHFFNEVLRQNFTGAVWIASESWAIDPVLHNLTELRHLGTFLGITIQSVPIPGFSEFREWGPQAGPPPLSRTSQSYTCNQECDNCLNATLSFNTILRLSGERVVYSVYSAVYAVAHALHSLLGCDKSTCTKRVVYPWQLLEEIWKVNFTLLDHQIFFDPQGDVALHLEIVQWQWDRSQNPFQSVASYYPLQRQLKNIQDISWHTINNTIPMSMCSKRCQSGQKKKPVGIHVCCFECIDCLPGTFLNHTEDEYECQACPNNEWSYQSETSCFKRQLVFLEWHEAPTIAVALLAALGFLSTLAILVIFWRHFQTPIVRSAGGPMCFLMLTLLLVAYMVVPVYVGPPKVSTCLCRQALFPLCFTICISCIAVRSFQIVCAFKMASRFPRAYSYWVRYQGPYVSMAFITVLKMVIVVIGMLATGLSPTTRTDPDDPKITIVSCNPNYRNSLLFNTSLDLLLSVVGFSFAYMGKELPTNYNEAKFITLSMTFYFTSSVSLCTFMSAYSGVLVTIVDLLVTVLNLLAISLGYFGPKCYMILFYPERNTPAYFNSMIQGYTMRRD
T1 sequence (Q7RTX0 21-852): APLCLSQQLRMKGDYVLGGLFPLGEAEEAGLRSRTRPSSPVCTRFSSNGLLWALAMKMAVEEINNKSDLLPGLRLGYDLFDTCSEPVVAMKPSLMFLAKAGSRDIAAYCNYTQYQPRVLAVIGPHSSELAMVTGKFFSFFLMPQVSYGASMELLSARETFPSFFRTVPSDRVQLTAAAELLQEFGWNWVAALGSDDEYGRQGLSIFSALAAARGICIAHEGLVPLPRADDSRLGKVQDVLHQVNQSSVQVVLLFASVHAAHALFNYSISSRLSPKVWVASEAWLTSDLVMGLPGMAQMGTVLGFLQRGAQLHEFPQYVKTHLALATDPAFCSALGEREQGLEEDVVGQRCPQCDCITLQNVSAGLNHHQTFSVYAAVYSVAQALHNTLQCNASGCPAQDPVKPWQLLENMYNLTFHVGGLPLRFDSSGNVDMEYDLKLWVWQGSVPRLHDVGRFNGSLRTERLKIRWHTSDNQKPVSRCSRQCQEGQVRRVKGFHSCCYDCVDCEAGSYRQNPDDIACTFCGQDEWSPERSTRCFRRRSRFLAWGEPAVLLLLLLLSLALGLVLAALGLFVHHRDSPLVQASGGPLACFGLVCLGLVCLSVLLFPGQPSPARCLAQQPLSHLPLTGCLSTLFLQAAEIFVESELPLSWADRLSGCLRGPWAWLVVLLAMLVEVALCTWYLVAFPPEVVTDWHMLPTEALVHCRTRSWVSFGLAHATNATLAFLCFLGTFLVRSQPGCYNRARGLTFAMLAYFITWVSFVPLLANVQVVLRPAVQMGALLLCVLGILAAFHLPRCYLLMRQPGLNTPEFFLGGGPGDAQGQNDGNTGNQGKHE
Experiment: automated fluorescent calcium imaging (Fluo-4 AM, FlexStation 3) of sweet taste receptor-expressing cells
Format: cell-based
Conditions: for Change amount in fluorescent intensity (ΔF): 27° C., to 100 seconds
Procedure: After cultured at 37° C. for 24 hours, the medium was removed, and replaced with 50 μl of a HEPES buffer, and […] of a HEPES buffer containing a fluorescent calcium indicator (Fluo-4 AM attached to Molecular Devices, FLIPR Ca 4 Assay Kit) was further added. Then, this was incubated at 27° C. for 45 minutes to prepare a cell to be subjected to automated fluorescent imaging. […]
In the same manner as that described above, […] subjected to automated fluorescent imaging, so that a final concentration of sucrose became a concentration described in Table 2, a HEPES buffer containing conc. neohesperidin dihydrochalcone was further added so that a final concentration of neohesperidin dihydrochalcone became 2 v/v %, stimulation was performed at 27° C., a fluorescent reaction (excitation at 485 nm, fluorescence at 525 nm) from immediately after addition of the solution to after 100 seconds was measured by using FlexStation 3 (Molecular Devices), and a response of a sweet taste receptor-expressing cell when neohesperidin dihydrochalcone was added to sucrose was quantitated. The vertical axis of FIG. 3 is a maximum (ΔF) of a change amount in a fluorescent intensity between immediately after stimulation and after 100 seconds from stimulation, that is, a response intensity of a cell, and the horizontal axis indicates a sucrose concentration (mM) as expressed by logarithm.

Change amount in fluorescent intensity (ΔF) (aspartame 0.167 mM alone): 6.568
Change amount in fluorescent intensity (ΔF) (aspartame 0.333 mM alone): 12.578
Change amount in fluorescent intensity (ΔF) (aspartame 0.667 mM alone): 33
Change amount in fluorescent intensity (ΔF) (aspartame 2 mM alone): 72.005
Structure (SMILES): COC(=O)[C@H](Cc1ccccc1)NC(=O)[C@@H](N)CC(=O)O [Aspartame, aspartame] (H-Asp-Phe-OMe)

Change amount in fluorescent intensity (ΔF) (saccharin 0.167 mM alone): 7.609
Change amount in fluorescent intensity (ΔF) (saccharin 0.333 mM alone): 22.936
Change amount in fluorescent intensity (ΔF) (saccharin 0.667 mM alone): 56.59
Change amount in fluorescent intensity (ΔF) (saccharin 2 mM alone): 86.194
Structure (SMILES): O=C1NS(=O)(=O)c2ccccc21 [Saccharin, saccharin]

Change amount in fluorescent intensity (ΔF) (sucrose 3.125 mM alone): 4.2
Change amount in fluorescent intensity (ΔF) (sucrose 6.25 mM alone): 4.6
Change amount in fluorescent intensity (ΔF) (sucrose 12.5 mM alone): 4.1
Change amount in fluorescent intensity (ΔF) (sucrose 25 mM alone): 5.7
Change amount in fluorescent intensity (ΔF) (sucrose 50 mM alone): 9.2
Change amount in fluorescent intensity (ΔF) (sucrose 100 mM alone): 23.3
Change amount in fluorescent intensity (ΔF) (sucrose 200 mM alone): 34.9
concentration below which a response of a sweet taste receptor cell is not observed (sucrose alone): around 50 mM
Structure (SMILES): OC[C@H]1O[C@@](CO)(O[C@H]2O[C@H](CO)[C@@H](O)[C@H](O)[C@H]2O)[C@@H](O)[C@@H]1O [Sucrose, sucrose]
